What all share (assay type): cell-based
The test system of assay [1] is MYB mRNA. The assay is described as follows: RT-qPCR splicing assay, MYB canonical (CJ) and alternative (AJ) junction mRNA. The conditions noted are these: Homo sapiens; for IC50: read-out: MYB CJ IC50; for AC50: read-out: MYB AJ AC50. As to the method:
(§1) Compounds described herein were used to modulate RNA transcript abundance in cells. The expression of a target mRNA was measured by detecting the formation of an exon-exon junction in the canonical transcript (CJ). A compound mediated exon-inclusion event was detected by observing an increase in formation of a new junction with an alternative exon (AJ). Real-time qPCR assays were used to detect these splicing switches and interrogate the potency of various compounds towards different target genes. A high-throughput real time quantitative PCR (RT-qPCR) assay was developed to measure these two isoforms of the mRNA (CJ and AJ) for exemplary genes, such as HTT, SMN2, and MYB, together with a control housekeeping gene, GAPDH or GUSB or PPIA, used for normalization. Briefly, the A673 or K562 cell line was treated with various compounds described herein (e.g., compounds of Formula (I)). After treatment, the levels of the HTT, MYB, or SMN2 mRNA targets were determined from each sample of cell lysate by cDNA synthesis followed by qPCR.
• Cells-to-CT 1-step kit: ThermoFisher A25602, Cells-to-CT lysis reagent: ThermoFisher 4391851C, TaqMan™ Fast Virus 1-Step Master Mix: ThermoFisher 4444436 • GAPDH: VIC-PL, ThermoFisher 4326317E (Assay: Hs99999905_m1)—used for K562/suspension cell lines • GUSB: VIC-PL, ThermoFisher 4326320E (Assay: Hs99999908_m1)—used for K562/suspension cell lines • PPIA: VIC-PL, ThermoFisher 4326316E (Assay: Hs99999904_m1)—used for A673/adherent cell lines
(§2) The A673 cell line was cultured in DMEM with 10% FBS. Cells were diluted with full growth media and plated in a 96-well plate (15,000 cells in 100 ul media per well). The plate was incubated at 37° C. with 5% CO2 for 24 hours to allow cells to adhere. An 11-point 3-fold serial dilution of the compounds was made in DMSO then diluted in media in an intermediate plate. Compounds were transferred from the intermediate plate to the cell plate with the top dose at a final concentration of 10 uM in the well. Final DMSO concentration was kept at or below 0.25%. The cell plate was returned to the incubator at 37° C. with 5% CO2 for an additional 24 hours.
(§3) The K562 cell line was cultured in IMDM with 10% FBS. For K562, cells were diluted with full growth media and plated in either a 96-well plate (50,000 cells in 50 uL media per well) or a 384-well plate (8,000-40,000 cells in 45 uL media per well). An 11-point 3-fold serial dilution of the compounds were made in DMSO then diluted in media in an intermediate plate. Compound was transferred from the intermediate plate to the cell plate with the top dose at a final concentration of 10 uM in the well. Final DMSO concentration was kept at or below 0.25%. Final volume was 100 uL for 96-well plate and 50 uL for 384-well plate. The cell plate was then placed in an incubator at 37° C. with 5% CO2 for 24 hours.
(§4) The cells were then gently washed with 50 uL-100 uL cold PBS before proceeding to addition of lysis buffer. 30 uL-50 μL of room temperature lysis buffer with DNAse I (and optionally RNAsin) was added to each well. Cells were shaken/mixed thoroughly at room temperature for 5-10 minutes for lysis to take place and then 3 uL-5 μL of room temperature stop solution was added and wells were shaken/mixed again. After 2-5 minutes, the cell lysate plate was transferred to ice for RT-qPCR reaction setup. The lysates could also be frozen at −80° C. for later use.
In some cases, a direct lysis buffer was used. An appropriate volume of 3× lysis buffer (10 mM Tris, 150 mM NaCl, 1.5%-2.5% Igepal and 0.1-1 U/uL RNAsin, pH 7.4) was directly added to either K562 or A673 cells in media and mixed by pipetting 3 times. The plates were then incubated at room temperature with shaking/rocking for 20-50 minutes to allow for lysis to take place. After this time, the cell lysate plate was transferred to ice to set up for the RT-qPCR reactions. The lysates could also be frozen at −80° C. for later use. […]

For assay [2], the system named is Target C. The assay is described as follows: RT-qPCR splicing assay, gene panel, Target C canonical junction (CJ) mRNA. The conditions noted are these: Homo sapiens, read-out: Target C CJ IC50. As to the method:
as §1, §2, §3, §4
(§5) In some cases, a direct lysis buffer was used. An appropriate volume of 3× lysis buffer (10 mM Tris, 150 mM NaCl, 1.5%-2.5% Igepal and 0.1-1 U/uL RNAsin, pH 7.4) was directly added to either K562 or A673 cells in media and mixed by pipetting 3 times. The plates were then incubated at room temperature with shaking/rocking for 20-50 minutes to allow for lysis to take place. After this time, the cell lysate plate was transferred to ice to set up for the RT-qPCR reactions. The lysates could also be frozen at −80° C. for later use.
(§6) To set up 10 uL RT-qPCR reactions, cell lysates were transferred to 384-well qPCR plates containing the master mix according to the table below. The plates were sealed, gently vortexed, and spun down before the run. The volumes were adjusted accordingly in some instances where the reaction was carried in 20 μL. The table below summarizes the components of the RT-qPCR reactions:
(§7) The RT-qPCR reaction was performed using a QuantStudio (ThermoFisher) under the following fast cycling conditions. […]
A general note: Real-time PCR tracks product formation cycle by cycle.

For assay [3], the system named is SMN2 mRNA. The assay is described as follows: RT-qPCR splicing assay, gene panel, SMN2 canonical junction (CJ) mRNA. The following applies: Homo sapiens, read-out: SMN2 CJ IC50. As to the method:
as §1, §2, §3, §4, §5, §6, §7

Setting [4] is: decrease in CJ mRNA levels, larger panel of genes, Table 3.
Where [5] appears, read: decrease in canonical junction mRNA, A673 or K562 cells, 24 hours treatment, Table 2.
Setting [6] is: increase in alternative junction mRNA, A673 or K562 cells, 24 hours treatment, Table 2.

Results on 15 molecules are retold here after US20250082633A1, “COMPOUNDS AND METHODS FOR MODULATING SPLICING” (REMIX THERAPEUTICS INC., priority 2021, published 2025).

Structures can show the parent of a compound that is named as a salt. Where two headings read alike, the source gives them in different places.

Usually IC50 stands for the concentration that inhibits the measured activity by half. As usually defined, the AC50 is the concentration giving half of the maximal activity seen. Consider `Cc1cn2nc(-c3cc4cn(C5CCNCC5)nc4cn3)cc(C)c2n1` [Compound 147, 2,8-dimethyl-6-[2-(4-piperidyl)pyrazolo[3,4-c]pyridin-5-yl]imidazo[1,2-b]pyridazine], for which the IC50 in assay [1] (setting [4]), in assay [1] (setting [5]), in assay [2] (setting [4]) and in assay [3] (setting [4]) was 100 to 1000 nM throughout. The AC50 in assay [1] (setting [6]) was in the range of 100 to 1000 nM.

On to `Cn1cc2cc(-c3ccc4nn(C5CCNCC5)cc4n3)c(O)cc2n1` [Compound 110, 2-methyl-5-[2-(4-piperidyl)pyrazolo[4,3-b]pyridin-5-yl]indazol-6-ol], for which the IC50 is 100 to 1000 nM in assay [1] (setting [4]), 100 to 1000 nM in assay [1] (setting [5]), 1000 to 10000 nM in assay [2] (setting [4]) and less than 100 nM in assay [3] (setting [4]). For the same molecule, in assay [1] (setting [6]), the AC50 is 100 to 1000 nM.

Turning to `Cc1cn2nc(-c3cc(F)c4nn(C5CCNCC5)cc4c3)cc(C)c2n1` [Compound 122, 6-(7-fluoro-2-(piperidin-4-yl)-2H-indazol-5-yl)-2,8-dimethylimidazo [1,2-b]pyridazine hydrochloride salt], the AC50 in assay [1] (24 h) is less than 100 nM. Moreover, the IC50 in assay [1] (24 h), in assay [1], in assay [2] and in assay [3] was less than 100 nM in each case.

`Cc1nc2c(F)cc(-c3cc(F)c4nn(C5CCNCC5)cc4c3)cc2o1` [Compound 136, 4-fluoro-6-[7-fluoro-2-(4-piperidyl)indazol-5-yl]-2-methyl-1,3-benzoxazole]: the IC50 is 100 to 1000 nM in assay [1] (setting [4]), 100 to 1000 nM in assay [1] (setting [5]), 100 to 1000 nM in assay [2] (setting [4]) and less than 100 nM in assay [3] (setting [4]). Moreover, in assay [1] (setting [6]), the AC50 was in the range of 100 to 1000 nM.

Regarding `Cn1cc2cc(-c3cc(F)c4nn(C5CCNCC5)cc4c3)ccc2n1` [Compound 145, 7-fluoro-5-(2-methylindazol-5-yl)-2-(4-piperidyl)indazole], the IC50 was 1000 to 10000 nM in assay [1] (setting [4]), 1000 to 10000 nM in assay [1] (setting [5]), 100 to 1000 nM in assay [2] (setting [4]) and less than 100 nM in assay [3] (setting [4]). Besides, the AC50 in assay [1] (setting [6]) was in the range of 100 to 1000 nM.

Take `Cc1cn2nc(-c3cc(F)c4nn(C5CCN(CCO)CC5)cc4c3)cc(C)c2n1` [Compound 160, 2-[4-[5-(2,8-dimethylimidazo[1,2-b]pyridazin-6-yl)-7-fluoro-indazol-2-yl]-1-piperidyl]ethanol]: in assay [1] (24 h), the AC50 lay within 100 to 1000 nM. Besides, the IC50 is 100 to 1000 nM in assay [1] (24 h), 100 to 1000 nM in assay [1], 100 to 1000 nM in assay [2] and less than 100 nM in assay [3].

As to `Cc1cc(-n2cc3cc(N4CCNCC4)cc(F)c3n2)cc2cn(C)nc12` [Compound 117, 2-(2,7-dimethylindazol-5-yl)-7-fluoro-5-piperazin-1-yl-indazole], the IC50 in assay [1] (setting [4]) is greater than 10000 nM; in assay [1] (setting [5]), greater than 10000 nM; in assay [2] (setting [4]), greater than 10000 nM; in assay [3] (setting [4]), 100 to 1000 nM. In assay [1] (setting [6]), the AC50 is 1000 to 10000 nM.

In the case of `Cc1cn2cc(-c3cc(F)c4nn(C5CCNCC5)cc4c3)cc(Cl)c2n1` [Compound 127, 5-(8-chloro-2-methylimidazo[1,2-a]pyridin-6-yl)-7-fluoro-2-(piperidin-4-yl)-2H-indazole hydrochloride salt], the IC50 was 100 to 1000 nM in assay [1] (setting [4]), 100 to 1000 nM in assay [1] (setting [5]), 100 to 1000 nM in assay [2] (setting [4]) and less than 100 nM in assay [3] (setting [4]). Moreover, in assay [1] (setting [6]), the AC50 is 100 to 1000 nM.

Consider `CCN1CCC(n2cc3cc(-c4cc(C)c5nc(C)cn5n4)cc(F)c3n2)CC12CC2` (stereo not drawn) [Compound 177, 6-[2-(4-ethyl-4-azaspiro[2.5]octan-7-yl)-7-fluoro-indazol-5-yl]-2,8-dimethyl-imidazo[1,2-b]pyridazine], for which the IC50 in assay [1] (setting [4]) is 100 to 1000 nM; in assay [1] (setting [5]) it was 100 to 1000 nM; in assay [2] (setting [4]) it was less than 100 nM; in assay [3] (setting [4]), less than 100 nM. For the same molecule, the AC50 in assay [1] (setting [6]) was in the range of 100 to 1000 nM.

For the molecule `Cc1nc2ccc(-c3cc(F)c4nn(C5CCNCC5)cc4c3)cc2s1` [Compound 134, 6-(7-fluoro-2-(piperidin-4-yl)-2H-indazol-5-yl)-2-methylbenzo[d]thiazole], the IC50 in assay [1] (setting [4]) is 1000 to 10000 nM; in assay [1] (setting [5]), 1000 to 10000 nM; in assay [2] (setting [4]), greater than 10000 nM; in assay [3] (setting [4]), 100 to 1000 nM. In assay [1] (setting [6]), the AC50 was greater than 10000 nM.

As to `Fc1cc(-c2ccc3ccncc3c2)cc2cn(C3CCNCC3)nc12` [Compound 158, 7-[7-fluoro-2-(4-piperidyl)indazol-5-yl]isoquinoline], the IC50 in assay [1] (setting [4]) was greater than 10000 nM; in assay [1] (setting [5]) it was greater than 10000 nM; in assay [2] (setting [4]), greater than 10000 nM; in assay [3] (setting [4]), 1000 to 10000 nM. In addition, the AC50 in assay [1] (setting [6]) is greater than 10000 nM.

Consider `Cc1cn2nc(-c3cc(F)c4nn(C5CCNCC5)cc4c3)cc2c(C)n1` [Compound 124, 2-[7-fluoro-2-(4-piperidyl)indazol-5-yl]-4,6-dimethyl-pyrazolo[1,5-a]pyrazine], for which the IC50 is 100 to 1000 nM in assay [1] (setting [4]), 100 to 1000 nM in assay [1] (setting [5]), 100 to 1000 nM in assay [2] (setting [4]) and less than 100 nM in assay [3] (setting [4]). Further, the AC50 in assay [1] (setting [6]) lay within 100 to 1000 nM.

In the case of `Cc1cn2nc(-c3ccc4nn(C5CCNCC5)cc4c3)cc(C)c2n1` [Compound 192, 2,8-dimethyl-6-[2-(4-piperidyl)indazol-5-yl]imidazo[1,2-b]pyridazine], the IC50 is 100 to 1000 nM in assay [1] (setting [4]), 100 to 1000 nM in assay [1] (setting [5]), 100 to 1000 nM in assay [2] (setting [4]) and less than 100 nM in assay [3] (setting [4]). Further, the AC50 in assay [1] (setting [6]) was 100 to 1000 nM.

As for `Cc1cn2nc(-c3cc4cn(C5CCNCC5)nc4c(O)n3)cc(C)c2n1` [Compound 139, 5-(2,8-dimethylimidazo[1,2-b]pyridazin-6-yl)-2-(4-piperidyl)-6H-pyrazolo[3,4-c]pyridin-7-one], the IC50 in assay [1] (setting [4]) was 100 to 1000 nM; in assay [1] (setting [5]), 100 to 1000 nM; in assay [2] (setting [4]) it was 100 to 1000 nM; in assay [3] (setting [4]) it was less than 100 nM. In assay [1] (setting [6]), the AC50 lay in the range of 100 to 1000 nM.

Regarding `COc1cc2nn(C3CCNCC3)cc2cc1-c1cc(C)c2nc(C)cn2n1` [Compound 159, 6-(6-methoxy-2-(piperidin-4-yl)-2H-indazol-5-yl)-2,8-dimethylimidazo[1,2-b]pyridazine], the concentration for half-maximal inhibition (IC50) in assay [1] (setting [4]), in assay [1] (setting [5]), in assay [2] (setting [4]) and in assay [3] (setting [4]) was greater than 10000 nM in each case. For the same molecule, the AC50 in assay [1] (setting [6]) was greater than 10000 nM.
